Results: patent US9137996B2, “Fungicidal alkyl- and aryl-substituted 2[-2-chloro-4-(dihalo-phenoxy)-phenyl]-1-[1,2,4]triazol-1-yl-ethanol compounds” (BASF SE, priority 2011, dated 2015)

Test system: Phakopsora pachyrhizi
Test: Protective control of soy bean rust on soy beans (Phakpa P1), green house
Format: in vivo, Phakopsora pachyrhizi on soy bean seedlings
Settings: 300 ppm active substance, sprayed 1 day before inoculation, assessed after fourteen days; untreated plants 90% infected
Procedure: The spray solutions were prepared in several steps:
The stock solution were prepared: a mixture of acetone and/or dimethylsulfoxide and the wetting agent/emulsifier Wettol, which is based on ethoxylated alkylphenoles, in a relation (volume) solvent-emulsifier of 99 to 1 was added to 25 mg of the compound to give a total of 5 ml. Water was then added to total volume of 100 ml. This stock solution was diluted with the described solvent-emulsifier-water mixture to the given concentration. 1. Protective control of soy bean rust on soy beans caused by Phakopsora pachyrhizi (Phakpa P1)
Leaves of pot-grown soy bean seedlings were sprayed to run-off with an aqueous suspension, containing the concentration of active ingredient or their mixture as described below. The plants were allowed to air-dry. The trial plants were cultivated for 1 day in a greenhouse chamber at 23-27° C. and a relative humidity between 60 and 80%.Then the plants were inoculated with spores of Phakopsora pachyrhizi. To ensure the success the artificial inoculation, the plants were transferred to a humid chamber with a relative humidity of about 95% and 20 to 24 C for 24 h. The trial plants were cultivated for fourteen days in a greenhouse chamber at 23-27° C. and a relative humidity between 60 and 80%. The extent of fungal attack on the leaves was visually assessed as % diseased leaf area.

Structure (SMILES): CC(O)(Cn1cncn1)c1ccc(Oc2ccc(Cl)cc2Cl)cc1Cl (stereo not shown) [I-1, 2-[2-chloro-4-(2,4-dichlorophenoxy)phenyl]-1-(1,2,4-triazol-1-yl)propan-2-ol]
- infection (extent of fungal attack, % diseased leaf area): 10%
